In general, melting point refers to the temperature, or range, at which the solid turns liquid.

The text below walks through data of patent US8048825B2, “Haloalkylsulfonanilide derivatives or salt thereof, herbicide comprising the derivatives as active ingredient, and use of the herbicide” (Nihon Nohyaku Co., Ltd., priority 2006, dated 2011).

Data set [1] deals with Scirpus juncoides. The data set is described as follows: Herbicidal efficacy on paddy field weeds of pre-emergence stage (Pre), Test Example 1. Type of data set: in vivo. The conditions noted are these: 1000 g/ha as active ingredient, examined after 21 days. In short, it runs like this: (§1)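 Clay-loam pots sown with Scirpus juncoides, covered with soil containing Lindernia procumbens seed, flooded to 5 cm. Next day formulated compound applied dropwise to water at 1000 g/ha a.i. Greenhouse-grown; growth inhibition versus untreated scored 0–5 after 21 days.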

In the next data set the test system is Lindernia procumbens. The data set is described as above. It is filed as in vivo. To be noted: 1000 g/ha as active ingredient, examined after 21 days. An outline of the steps: as §1
Data set [2] has as its system transplanted paddy-rice (rice species: Nihonbare). The data set is described as follows: Test of phytotoxicity on transplanted paddy-rice, Test Example 3. Type of data set: in vivo. The conditions noted are these: two-leaf stage seedlings, 1000 g/ha as active ingredient, applied 5 days after transplantation, examined after 21 days. An excerpt:
Criteria for herbicidal efficacy (growth inhibiting degree) and phytotoxicity. • 5 . . . 100% herbicidal effect, phytotoxicity. • 4 . . . 90%-99% herbicidal effect, phytotoxicity. • 3 . . . 70%-89% herbicidal effect, phytotoxicity. • 2 . . . 40%-69% herbicidal effect, phytotoxicity. • 1 . . . 1%-39% herbicidal effect, phytotoxicity. • 0 . . . 0% herbicidal effect, phytotoxicity.
75 cm^2 plastic pots were filled with the soil (clay loam) and filled with water depth of 5 cm and 2 rice plant seedlings (rice species: Nihonbare) at two-leaf stage were transplanted therein. They were brought up in a greenhouse and, after five days from the transplantation, predetermined effective dosage (1000 g/ha in terms of active ingredient) of formulations comprising a compound of the present invention as an active ingredient was applied to the pot water. Then, they were brought up in a greenhouse and the phytotoxicity was examined after 21 days from the treatment by comparing with the result of an untreated group according to the criteria of Test Example 1. In the table, “-” means that the test was not performed.

In data set [3] the test system is Scirpus juncoides. Kind of data set: Herbicidal effect on paddy field weeds of post-emergence stage (Post), Test Example 2. It is filed as in vivo. To be noted: one-leaf stage, 1000 g/ha as active ingredient, examined after 21 days. In short, it runs like this:
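Scirpus juncoides and Echinochloa crus-galli sown in clay loam, with Lindernia procumbens seed in the soil cover, under 5 cm flooding in greenhouse. At one-leaf stage, 1000 g/ha active ingredient applied to pot water. Efficacy scored visually 0–5 against untreated plants at 21 days after treatment.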

Consider `CCCOC(=O)N(c1ccccc1CN1CCCOC1=O)S(=O)(=O)C(F)(F)F` [Compound No. 1-4, 3-{2-[N-(propoxycarbonyl)-N -(trifluoromethanesulfonyl)amino]benzyl)-[1,3]-oxazinan-2-one], for which, in the data set on Scirpus juncoides [1], the “Scirpus juncoides pre (herbicidal effect)” value (“Scirpus juncoides pre” for short) is on record as 4 (90%-99% herbicidal effect, phytotoxicity). Further, the “Lindernia procumbens pre (herbicidal effect)” value (“Lindernia procumbens pre” for short) with Lindernia procumbens was 4 (90%-99% herbicidal effect, phytotoxicity). Besides, the “Rice (phytotoxicity)” value in data set [2] is reported as 3 (70%-89% herbicidal effect, phytotoxicity). In addition, the “Scirpus juncoides post (herbicidal effect)” value (shortened to “Scirpus juncoides post”) with Scirpus juncoides [3] is listed as 4 (90%-99% herbicidal effect, phytotoxicity).

`CC1(C)COC(=S)N(Cc2ccccc2NS(=O)(=O)C(F)(F)F)C1` [Compound No. 1-34, 5,5-dimethyl-3-[2-(trifluoromethanesulfonylamino)benzyl]-[1,3]-oxazinan-2-thione] registered a melting point of 129.9 °C. Besides, in the data set on Scirpus juncoides [1], the “Scirpus juncoides pre” value was 4 (90%-99% herbicidal effect, phytotoxicity). Besides, the “Lindernia procumbens pre” value in the data set on Lindernia procumbens is 4 (90%-99% herbicidal effect, phytotoxicity). For the same compound, the “Scirpus juncoides post” value with Scirpus juncoides [3] is recorded as 4 (90%-99% herbicidal effect, phytotoxicity).

In the case of `COC(=O)N(c1ccccc1CN1CC(C)(C)COC1=S)S(=O)(=O)C(F)(F)F` [Compound No. 1-35, 5,5-dimethyl-3-(2-[N-(methoxycarbonyl)-N-(trifluoromethanesulfonyl)amino]benzyl)-[1,3]-oxazinane-2-thione], in the data set with Scirpus juncoides [1], the “Scirpus juncoides pre” value is given as 4 (90%-99% herbicidal effect, phytotoxicity). Besides, in the data set on Lindernia procumbens, the “Lindernia procumbens pre” value is listed as 4 (90%-99% herbicidal effect, phytotoxicity). Moreover, in data set [2], the “Rice (phytotoxicity)” value was 2 (40%-69% herbicidal effect, phytotoxicity). In the data set on Scirpus juncoides [3], the “Scirpus juncoides post” value was 4 (90%-99% herbicidal effect, phytotoxicity).

In the case of `O=C1OC(c2ccccc2)CCN1Cc1ccccc1NS(=O)(=O)C(F)(F)F` (centres unmarked) [Compound No. 1-239, 6-phenyl-3-[2-(trifluoromethanesulfonylamino)benzyl]-[1,3]-oxazinan-2-one], the melting point was found to be 152 °C. Also, the “Lindernia procumbens pre” value in the data set on Lindernia procumbens was 5 (100% herbicidal effect, phytotoxicity). Moreover, in the data set with Scirpus juncoides [3], the “Scirpus juncoides post” value is listed as 4 (90%-99% herbicidal effect, phytotoxicity).

`CCOCN(c1ccccc1CN1CCC(c2ccccc2)OC1=O)S(=O)(=O)C(F)(F)F` (centres unmarked) [Compound No. 1-248, 6-phenyl-3-{2-[N-(ethoxymethyl)-N-(trifluoromethanesulfonyl)amino]benzyl)-[1,3]-oxazinan-2-one] yielded a melting point of 115.6 °C.

`CC(C)COC(=O)N(c1ccccc1CN1CCC(C)COC1=O)S(=O)(=O)C(F)(F)F` (centres unmarked) [Compound No. 2-28, 3-(2-[N-(isobutoxycarbonyl)-N-(trifluoromethanesulfonyl)amino]benzyl)-6-methyl-[1,3]-oxazepan-2-one]: the “Scirpus juncoides pre” value in the data set on Scirpus juncoides [1] is 4 (90%-99% herbicidal effect, phytotoxicity). Further, in the data set on Lindernia procumbens, the “Lindernia procumbens pre” value is on record as 4 (90%-99% herbicidal effect, phytotoxicity). In data set [2], the “Rice (phytotoxicity)” value is listed as 3 (70%-89% herbicidal effect, phytotoxicity). The “Scirpus juncoides post” value in the data set with Scirpus juncoides [3] is given as 4 (90%-99% herbicidal effect, phytotoxicity).
